Measured values reported in patent US20030144249A1, “Use of organophosphorous compounds for producing a medicament for treating infections” (priority 2000, published 2003).
Counter-ions that a name gives are not always drawn.

Tests used:
Galium aperine [1] = test: Herbicidal activity, soil, pre-emergence; type: in vivo; settings: read-out: Herbicidal activity, Galium aperine
Experimental: (§1) Herbicidal activity is determined using standard methods.
(§2) Substances 1 to 8 listed on page 5 are again investigated.

Setaria viridis [2] = test: Herbicidal activity, soil, pre-emergence; type: in vivo; settings: read-out: Herbicidal activity, Setaria viridis
Experimental: as §1, §2

Zea mays [3] = test: Herbicidal activity, soil, pre-emergence; type: in vivo; settings: read-out: Herbicidal activity, Zea mays
Experimental: as §1, §2

Beta vulgaris [4] = test: Herbicidal activity, soil, pre-emergence; type: in vivo; settings: read-out: Herbicidal activity, Beta vulgaris
Experimental: as §1, §2

Amaranthus retroflexus [5] = test: Herbicidal activity, soil, pre-emergence; type: in vivo; settings: read-out: Herbicidal activity, Amaranthus retroflexus
Experimental: as §1, §2

Xanthium strumarium [6] = test: Herbicidal activity, soil, pre-emergence; type: in vivo; settings: read-out: Herbicidal activity, Xanthium strumarium
Experimental: as §1, §2

Cyperus esculentus [7] = test: Herbicidal activity, soil, pre-emergence; type: in vivo; settings: read-out: Herbicidal activity, Cyperus esculentus
Experimental: as §1, §2

Alopecurus myosuroides [8] = test: Herbicidal activity, soil, pre-emergence; type: in vivo; settings: read-out: Herbicidal activity, Alopecurus myosuroides
Experimental: as §1, §2

Avena fatua [9] = test: Herbicidal activity, soil, pre-emergence; type: in vivo; settings: read-out: Herbicidal activity, Avena fatua
Experimental: as §1, §2

Abutilon theophrasti [10] = test: Herbicidal activity, soil, pre-emergence; type: in vivo; settings: read-out: Herbicidal activity, Abutilon theophrasti
Experimental: as §1, §2

Sinapis arvensis [11] = test: Herbicidal activity, soil, pre-emergence; type: in vivo; settings: Mutarda arvensis, read-out: Herbicidal activity, Sinapis arvensis
Experimental: as §1, §2

[12] = biological target: T1, DOXP reductoisomerase from Helicobacter pylori (Helicobacter pylori, UniProt P56139); test: DOXP reductoisomerase inhibition (NADPH oxidation at 365 nm); type: biochemical
T1 construct: made in house; host or cells: Helicobacter pylori (so in the source)
T1 sequence (P56139 1-368): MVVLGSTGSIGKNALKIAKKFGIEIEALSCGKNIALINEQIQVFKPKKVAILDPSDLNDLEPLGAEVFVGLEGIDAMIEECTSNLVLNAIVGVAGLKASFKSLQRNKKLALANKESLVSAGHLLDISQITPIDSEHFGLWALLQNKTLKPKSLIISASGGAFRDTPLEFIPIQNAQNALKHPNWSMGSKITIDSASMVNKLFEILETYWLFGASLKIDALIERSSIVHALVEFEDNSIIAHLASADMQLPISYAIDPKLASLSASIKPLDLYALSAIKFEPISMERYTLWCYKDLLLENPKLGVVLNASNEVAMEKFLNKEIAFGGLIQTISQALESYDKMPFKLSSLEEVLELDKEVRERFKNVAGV
Experimental: The DOXP reductoisomerase of Helicobacter pylori was expressed as a recombinant protein in Helicobacter pylori. The activity of DOXP reductoisomerase was determined in a batch containing 100 mM tris-HCl (pH=7.5), 1 mM MnCl2, 0.3 mM NADPH and 1 mM DOXP.
The oxidation of NADPH was here measured at 365 nm in a spectrophotometer. The inhibition studies were performed by measuring the activity of DOXP reductoisomerase in the presence of compounds 1 to 8 (see page 5) at various concentrations between 0. 1 and 100 μmol l^−1.

Lepidium = test: Herbicidal activity, water, pre-emergence; type: in vivo; settings: read-out: Herbicidal activity, Lepidium
Experimental: as §1, §2

Solanum = test: Herbicidal activity, water, pre-emergence; type: in vivo; settings: read-out: Herbicidal activity, Solanum
Experimental: as §1, §2

Rice = test: Herbicidal activity, water, pre-emergence; type: in vivo; settings: Oryza sativa, read-out: Herbicidal activity, Rice
Experimental: as §1, §2

Echinochloa = test: Herbicidal activity, water, pre-emergence; type: in vivo; settings: read-out: Herbicidal activity, Echinochloa
Experimental: as §1, §2

Galium aperine [13] = test: Herbicidal activity, soil, post-emergence; type: in vivo; settings: read-out: Herbicidal activity, Galium aperine
Experimental: as §1, §2

Setaria viridis [14] = test: Herbicidal activity, soil, post-emergence; type: in vivo; settings: read-out: Herbicidal activity, Setaria viridis
Experimental: as §1, §2

Zea mays [15] = test: Herbicidal activity, soil, post-emergence; type: in vivo; settings: read-out: Herbicidal activity, Zea mays
Experimental: as §1, §2

Beta vulgaris [16] = test: Herbicidal activity, soil, post-emergence; type: in vivo; settings: read-out: Herbicidal activity, Beta vulgaris
Experimental: as §1, §2

Amaranthus retroflexus [17] = test: Herbicidal activity, soil, post-emergence; type: in vivo; settings: read-out: Herbicidal activity, Amaranthus retroflexus
Experimental: as §1, §2

Xanthium strumarium [18] = test: Herbicidal activity, soil, post-emergence; type: in vivo; settings: read-out: Herbicidal activity, Xanthium strumarium
Experimental: as §1, §2

Cyperus esculentus [19] = test: Herbicidal activity, soil, post-emergence; type: in vivo; settings: read-out: Herbicidal activity, Cyperus esculentus
Experimental: as §1, §2

Alopecurus myosuroides [20] = test: Herbicidal activity, soil, post-emergence; type: in vivo; settings: read-out: Herbicidal activity, Alopecurus myosuroides
Experimental: as §1, §2

Avena fatua [21] = test: Herbicidal activity, soil, post-emergence; type: in vivo; settings: read-out: Herbicidal activity, Avena fatua
Experimental: as §1, §2

Abutilon theophrasti [22] = test: Herbicidal activity, soil, post-emergence; type: in vivo; settings: read-out: Herbicidal activity, Abutilon theophrasti
Experimental: as §1, §2

Sinapis arvensis [23] = test: Herbicidal activity, soil, post-emergence; type: in vivo; settings: Mutarda arvensis, read-out: Herbicidal activity, Sinapis arvensis
Experimental: as §1, §2

O=CN(O)CNCP(=O)(O)O [Compound 8]
pest or weed control at 1000 g/ha (Galium aperine [1]): 0%
pest or weed control at 1000 g/ha (Setaria viridis [2]): 0%
plant injury at 1000 g/ha (Zea mays [3]): 30%
plant injury at 1000 g/ha (Beta vulgaris [4]): 40%
pest or weed control at 1000 g/ha (Amaranthus retroflexus [5]): 20%
pest or weed control at 1000 g/ha (Xanthium strumarium [6]): 0%
pest or weed control at 1000 g/ha (Cyperus esculentus [7]): 0%
pest or weed control at 1000 g/ha (Alopecurus myosuroides [8]): 30%
pest or weed control at 1000 g/ha (Avena fatua [9]): 30%
pest or weed control at 1000 g/ha (Abutilon theophrasti [10]): 0%
pest or weed control at 1000 g/ha (Sinapis arvensis [11]): 30%
IC50 [12]: 60 nM
pest or weed control at 2000 g/ha (Lepidium): 30%
pest or weed control at 2000 g/ha (Solanum): 30%
plant injury at 2000 g/ha (Rice): 30%
pest or weed control at 2000 g/ha (Echinochloa): 40%
pest or weed control at 1000 g/ha (Galium aperine [13]): 70%
pest or weed control at 1000 g/ha (Setaria viridis [14]): 90%
plant injury at 1000 g/ha (Zea mays [15]): 70%
plant injury at 1000 g/ha (Beta vulgaris [16]): 50%
pest or weed control at 1000 g/ha (Amaranthus retroflexus [17]): 50%
pest or weed control at 1000 g/ha (Xanthium strumarium [18]): 90%
pest or weed control at 1000 g/ha (Cyperus esculentus [19]): 0%
pest or weed control at 1000 g/ha (Alopecurus myosuroides [20]): 80%
pest or weed control at 1000 g/ha (Avena fatua [21]): 80%
pest or weed control at 1000 g/ha (Abutilon theophrasti [22]): 50%
pest or weed control at 1000 g/ha (Sinapis arvensis [23]): 70%

CP(=O)(O)C(O)CNCN(O)C(=O)c1ccco1 (stereo not drawn) [Compound 5, 2-(N-2-Furanoyl-N-hydroxy-aminomethyl)amino-1-hydroxyethylmethylphosphinic acid, sodium salt]
pest or weed control at 2000 g/ha (Galium aperine [1]): 0%
pest or weed control at 2000 g/ha (Setaria viridis [2]): 0%
plant injury at 2000 g/ha (Zea mays [3]): 0%
plant injury at 2000 g/ha (Beta vulgaris [4]): 30%
pest or weed control at 2000 g/ha (Amaranthus retroflexus [5]): 0%
pest or weed control at 2000 g/ha (Xanthium strumarium [6]): 0%
pest or weed control at 2000 g/ha (Cyperus esculentus [7]): 0%
pest or weed control at 2000 g/ha (Alopecurus myosuroides [8]): 50%
pest or weed control at 2000 g/ha (Avena fatua [9]): 0%
pest or weed control at 2000 g/ha (Abutilon theophrasti [10]): 0%
pest or weed control at 2000 g/ha (Sinapis arvensis [11]): 50%
IC50 [12]: 130 nM
pest or weed control at 4000 g/ha (Lepidium): 40%
pest or weed control at 4000 g/ha (Solanum): 0%
plant injury at 4000 g/ha (Rice): 40%
pest or weed control at 4000 g/ha (Echinochloa): 80%
pest or weed control at 2000 g/ha (Galium aperine [13]): 80%
pest or weed control at 2000 g/ha (Setaria viridis [14]): 95%
plant injury at 2000 g/ha (Zea mays [15]): 80%
plant injury at 2000 g/ha (Beta vulgaris [16]): 40%
pest or weed control at 2000 g/ha (Amaranthus retroflexus [17]): 30%
pest or weed control at 2000 g/ha (Xanthium strumarium [18]): 60%
pest or weed control at 2000 g/ha (Cyperus esculentus [19]): 0%
pest or weed control at 2000 g/ha (Alopecurus myosuroides [20]): 70%
pest or weed control at 2000 g/ha (Avena fatua [21]): 80%
pest or weed control at 2000 g/ha (Abutilon theophrasti [22]): 40%
pest or weed control at 2000 g/ha (Sinapis arvensis [23]): 90%

CN(CN(O)C(=O)C1CCCCC1)CP(C)(=O)O [Compound 3, N-((N-Cyclohexanoyl-N-hydroxy)aminomethyl)-N-methyl(aminomethylphosphinic acid, sodium salt]
pest or weed control at 2000 g/ha (Galium aperine [1]): 0%
pest or weed control at 2000 g/ha (Setaria viridis [2]): 0%
plant injury at 2000 g/ha (Zea mays [3]): 0%
plant injury at 2000 g/ha (Beta vulgaris [4]): 30%
pest or weed control at 2000 g/ha (Amaranthus retroflexus [5]): 0%
pest or weed control at 2000 g/ha (Xanthium strumarium [6]): 0%
pest or weed control at 2000 g/ha (Cyperus esculentus [7]): 0%
pest or weed control at 2000 g/ha (Alopecurus myosuroides [8]): 30%
pest or weed control at 2000 g/ha (Avena fatua [9]): 0%
pest or weed control at 2000 g/ha (Abutilon theophrasti [10]): 0%
pest or weed control at 2000 g/ha (Sinapis arvensis [11]): 30%
IC50 [12]: 170 nM
pest or weed control at 4000 g/ha (Lepidium): 50%
pest or weed control at 4000 g/ha (Solanum): 0%
plant injury at 4000 g/ha (Rice): 40%
pest or weed control at 4000 g/ha (Echinochloa): 50%
pest or weed control at 2000 g/ha (Galium aperine [13]): 60%
pest or weed control at 2000 g/ha (Setaria viridis [14]): 70%
plant injury at 2000 g/ha (Zea mays [15]): 70%
plant injury at 2000 g/ha (Beta vulgaris [16]): 60%
pest or weed control at 2000 g/ha (Amaranthus retroflexus [17]): 60%
pest or weed control at 2000 g/ha (Xanthium strumarium [18]): 60%
pest or weed control at 2000 g/ha (Cyperus esculentus [19]): 0%
pest or weed control at 2000 g/ha (Alopecurus myosuroides [20]): 60%
pest or weed control at 2000 g/ha (Avena fatua [21]): 70%
pest or weed control at 2000 g/ha (Abutilon theophrasti [22]): 60%
pest or weed control at 2000 g/ha (Sinapis arvensis [23]): 80%

CP(=O)(CNCN(O)C(=O)CCCN1CCOCC1)Oc1ccccc1 (stereo not drawn) [Compound 4, N-[(4-N-Morpholinobutanoyl-N-hydroxy)aminomethyl]aminomethyl(methyl)phosphinic acid phenyl ester]
pest or weed control at 2000 g/ha (Galium aperine [1]): 0%
pest or weed control at 2000 g/ha (Setaria viridis [2]): 0%
plant injury at 2000 g/ha (Zea mays [3]): 30%
plant injury at 2000 g/ha (Beta vulgaris [4]): 60%
pest or weed control at 2000 g/ha (Amaranthus retroflexus [5]): 20%
pest or weed control at 2000 g/ha (Xanthium strumarium [6]): 0%
pest or weed control at 2000 g/ha (Cyperus esculentus [7]): 0%
pest or weed control at 2000 g/ha (Alopecurus myosuroides [8]): 30%
pest or weed control at 2000 g/ha (Avena fatua [9]): 60%
pest or weed control at 2000 g/ha (Abutilon theophrasti [10]): 0%
pest or weed control at 2000 g/ha (Sinapis arvensis [11]): 70%
IC50 [12]: 110 nM
pest or weed control at 4000 g/ha (Lepidium): 40%
pest or weed control at 4000 g/ha (Solanum): 30%
plant injury at 4000 g/ha (Rice): 30%
pest or weed control at 4000 g/ha (Echinochloa): 70%
pest or weed control at 2000 g/ha (Galium aperine [13]): 70%
pest or weed control at 2000 g/ha (Setaria viridis [14]): 90%
plant injury at 2000 g/ha (Zea mays [15]): 70%
plant injury at 2000 g/ha (Beta vulgaris [16]): 50%
pest or weed control at 2000 g/ha (Amaranthus retroflexus [17]): 40%
pest or weed control at 2000 g/ha (Xanthium strumarium [18]): 90%
pest or weed control at 2000 g/ha (Cyperus esculentus [19]): 0%
pest or weed control at 2000 g/ha (Alopecurus myosuroides [20]): 70%
pest or weed control at 2000 g/ha (Avena fatua [21]): 70%
pest or weed control at 2000 g/ha (Abutilon theophrasti [22]): 50%
pest or weed control at 2000 g/ha (Sinapis arvensis [23]): 80%
